Measurements: the supplement of paper PMC11061612

Key:
Palbociclib = compound: CC(=O)c1c(C)c2cnc(Nc3ccc(N4CCNCC4)cn3)nc2n(C2CCCC2)c1=O [Palbociclib]; conditions: max 10 µM
How it was run: (§1)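 Cancer cell lines in 1536-well plates (7.5 μl DMEM/F12 or RPMI, 10% FBS) were held 24 hours at 37°C and 5% CO2 and then dosed for 72 hours at a final DMSO of typically 0.2%. Viability was taken from CellTiter-Glo 2.0 luminescence, scaled between blank-well and DMSO-well means. Curves were fitted as two-parameter logistic models with a non-linear mixed effects model, from which the single-agent IC50 was taken.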

Capivasertib = compound: C1CN(CCC1(C(=O)N[C@@H](CCO)C2=CC=C(C=C2)Cl)N)C3=NC=NC4=C3C=CN4 [Capivasertib]; conditions: max 10 µM
How it was run: as §1

AZD5153 = compound: COc1nnc2ccc(N3CCC(c4ccc(OCCN5CCN(C)C(=O)[C@H]5C)cc4)CC3)nn12 [AZD5153]; conditions: max 1 µM
How it was run: as §1

Doxorubicin = compound: COc1cccc2c1C(=O)c1c(O)c3c(c(O)c1C2=O)C[C@@](O)(C(=O)CO)C[C@@H]3O[C@H]1C[C@H](N)[C@H](O)[C@H](C)O1 [Doxorubicin]; conditions: max 1 µM
How it was run: as §1

Olaparib = compound: O=C(c1cc(Cc2n[nH]c(=O)c3ccccc23)ccc1F)N1CCN(C(=O)C2CC2)CC1 [Olaparib]; conditions: max 10 µM
How it was run: as §1

MK-2206 = compound: NC1(c2ccc(-c3nc4ccn5c(=O)[nH]nc5c4cc3-c3ccccc3)cc2)CCC1 [MK-2206]; conditions: max 10 µM
How it was run: as §1

Venetoclax = compound: CC1(C)CCC(CN2CCN(c3ccc(C(=O)NS(=O)(=O)c4ccc(NCC5CCOCC5)c([N+](=O)[O-])c4)c(Oc4cnc5[nH]ccc5c4)c3)CC2)=C(c2ccc(Cl)cc2)C1 [Venetoclax]; conditions: max 1 µM
How it was run: as §1

Dasatinib = compound: CC1=C(C(=CC=C1)Cl)NC(=O)C2=CN=C(S2)NC3=CC(=NC(=N3)C)N4CCN(CC4)CCO [Dasatinib]; conditions: max 2 µM
How it was run: as §1

Taselisib = compound: Cc1nc(-c2cn3c(n2)-c2ccc(-c4cnn(C(C)(C)C(N)=O)c4)cc2OCC3)n(C(C)C)n1 [Taselisib]; conditions: max 10 µM
How it was run: as §1

Crizotinib = compound: C[C@@H](Oc1cc(-c2cnn(C3CCNCC3)c2)cnc1N)c1c(Cl)ccc(F)c1Cl [Crizotinib]; conditions: max 10 µM
How it was run: as §1

AZD7648 = compound: Cc1cc2ncnn2cc1Nc1ncc2c(n1)n(C1CCOCC1)c(=O)n2C [AZD7648]; conditions: max 10 µM
How it was run: as §1

Prexasertib = compound: COc1cccc(OCCCN)c1-c1cc(Nc2cnc(C#N)cn2)n[nH]1 [Prexasertib]; conditions: max 1 µM
How it was run: as §1

AZD1390 = compound: CC(C)n1c(=O)n(C)c2cnc3cc(F)c(-c4ccc(OCCCN5CCCCC5)nc4)cc3c21 [AZD1390]; conditions: max 0.3 µM
How it was run: as §1

AZD1775 = compound: C=CCn1c(=O)c2cnc(Nc3ccc(N4CCN(C)CC4)cc3)nc2n1-c1cccc(C(C)(C)O)n1 [AZD1775]; conditions: max 3 µM
How it was run: as §1

AZD6738 = compound: C[C@@H]1COCCN1C2=NC(=NC(=C2)C3(CC3)[S@](=N)(=O)C)C4=C5C=CNC5=NC=C4 [AZD6738]; conditions: max 10 µM
How it was run: as §1

Savolitinib = compound: C[C@@H](c1ccc2nccn2c1)n1nnc2ncc(-c3cnn(C)c3)nc21 [Savolitinib]; conditions: max 1 µM
How it was run: as §1

Gefitinib = compound: COc1cc2ncnc(Nc3ccc(F)c(Cl)c3)c2cc1OCCCN1CCOCC1 [Gefitinib]; conditions: max 10 µM
How it was run: as §1

Lapatinib = compound: CS(=O)(=O)CCNCc1ccc(-c2ccc3ncnc(Nc4ccc(OCc5cccc(F)c5)c(Cl)c4)c3c2)o1 [Lapatinib]; conditions: max 10 µM
How it was run: as §1

Selumetinib = compound: Cn1cnc2c(F)c(Nc3ccc(Br)cc3Cl)c(C(=O)NOCCO)cc21 [Selumetinib]; conditions: max 10 µM
How it was run: as §1

AZD0156 = compound: CN(C)CCCOc1ccc(-c2ccc3ncc4c(c3c2)n(C2CCOCC2)c(=O)n4C)cn1 [AZD0156]; conditions: max 3 µM
How it was run: as §1

AZD4320 = compound: CN(CC[C@H](CSC1=CC=CC=C1)NC2=C(C=C(C=C2)S(=O)(=O)NC(=O)C3=CC=C(C=C3)N4CCC(CC4)[C@H](C5=CC=CC=C5C6=CC=C(C=C6)Cl)O)S(=O)(=O)C(F)(F)F)CCO [AZD4320]; conditions: max 1 µM
How it was run: as §1

AZD2811 = compound: CCN(CCO)CCCOc1ccc2c(Nc3cc(CC(=O)Nc4cccc(F)c4)[nH]n3)ncnc2c1 [AZD2811]; conditions: max 1 µM
How it was run: as §1

AZD5991 = compound: Cc1c2c(nn1C)CSCc1cc(n(C)n1)CSc1cc(c3ccccc3c1)OCCCc1c(C(=O)O)n(C)c3c-2c(Cl)ccc13 [AZD5991]; conditions: max 1 µM
How it was run: as §1

AZD8186 = compound: C[C@@H](Nc1cc(F)cc(F)c1)c1cc(C(=O)N(C)C)cc2c(=O)cc(N3CCOCC3)oc12 [AZD8186]; conditions: max 3 µM
How it was run: as §1

SG3199 = compound: CC1=CN2[C@@H](C1)C=NC3=CC(=C(C=C3C2=O)OC)OCCCCCOC4=C(C=C5C(=C4)N=C[C@@H]6CC(=CN6C5=O)C)OC [SG3199]; conditions: max 0.001 µM
How it was run: as §1

Alisertib = compound: COc1cc(Nc2ncc3c(n2)-c2ccc(Cl)cc2C(c2c(F)cccc2OC)=NC3)ccc1C(=O)O [Alisertib]; conditions: max 10 µM
How it was run: as §1

SN-38 = compound: CCc1c2c(nc3ccc(O)cc13)-c1cc3c(c(=O)n1C2)COC(=O)[C@]3(O)CC [SN-38]; conditions: max 0.3 µM
How it was run: as §1

Trametinib = compound: CC(=O)Nc1cccc(-n2c(=O)n(C3CC3)c(=O)c3c(Nc4ccc(I)cc4F)n(C)c(=O)c(C)c32)c1 [Trametinib]; conditions: max 1 µM
How it was run: as §1

Cell Line | IC50, cell viability 72 h (Palbociclib) [nM] | IC50, cell viability 72 h (Capivasertib) [nM] | IC50, cell viability 72 h (AZD5153) [nM] | IC50, cell viability 72 h (Doxorubicin) [nM] | IC50, cell viability 72 h (Olaparib) [nM] | IC50, cell viability 72 h (MK-2206) [nM] | IC50, cell viability 72 h (Venetoclax) [nM] | IC50, cell viability 72 h (Dasatinib) [nM] | IC50, cell viability 72 h (Taselisib) [nM] | IC50, cell viability 72 h (Crizotinib) [nM] | IC50, cell viability 72 h (AZD7648) [nM] | IC50, cell viability 72 h (Prexasertib) [nM] | IC50, cell viability 72 h (AZD1390) [nM] | IC50, cell viability 72 h (AZD1775) [nM] | IC50, cell viability 72 h (AZD6738) [nM] | IC50, cell viability 72 h (Savolitinib) [nM] | IC50, cell viability 72 h (Gefitinib) [nM] | IC50, cell viability 72 h (Lapatinib) [nM] | IC50, cell viability 72 h (Selumetinib) [nM] | IC50, cell viability 72 h (AZD0156) [nM] | IC50, cell viability 72 h (AZD4320) [nM] | IC50, cell viability 72 h (AZD2811) [nM] | IC50, cell viability 72 h (AZD5991) [nM] | IC50, cell viability 72 h (AZD8186) [nM] | IC50, cell viability 72 h (SG3199) [nM] | IC50, cell viability 72 h (Alisertib) [nM] | IC50, cell viability 72 h (SN-38) [nM] | IC50, cell viability 72 h (Trametinib) [nM]
MCF7 (Breast Carcinoma) | > 10000 | 8440 | 343 | > 1000 | > 10000 | 8680 | > 1000 | > 2000 | 1390 | > 10000 | > 10000 | > 1000 | > 300 | > 3000 | 6710 | > 1000 | > 10000 | > 10000 | > 10000 | > 3000 | > 1000 | > 1000 | 838 | > 3000 | > 1 | > 10000 | 53.2 | > 1000
SKN-3 (Head and Neck Carcinoma) | > 10000 | > 10000 | > 1000 | > 1000 | > 10000 | > 10000 | > 1000 | > 2000 | 9180 | > 10000 | > 10000 | 380 | > 300 | 1530 | > 10000 | > 1000 | > 10000 | > 10000 | > 10000 | > 3000 | > 1000 | > 1000 | > 1000 | > 3000 | > 1 | > 10000 | 251 | > 1000
TYK-nu (Ovarian Carcinoma) | > 10000 | > 10000 | 280 | > 1000 | > 10000 | > 10000 | > 1000 | > 2000 | > 10000 | > 10000 | > 10000 | 57.2 | > 300 | 763 | 5370 | > 1000 | > 10000 | > 10000 | 4360 | > 3000 | > 1000 | > 1000 | > 1000 | > 3000 | > 1 | > 10000 | 10.8 | 301
